From BindingDB's records for doi:10.7270/Q2KP80J0 (The Scripps Research Institute Molecular Screening Center, 2007)

target: T1, Ephrin type-B receptor 4 (Homo sapiens, UniProt P54760); experiment: blockers of EphB4 ligand binding – biochemical, TNYL-RAW peptide displacement, dose response (AID 835)
T1 sequence (P54760 whole entry): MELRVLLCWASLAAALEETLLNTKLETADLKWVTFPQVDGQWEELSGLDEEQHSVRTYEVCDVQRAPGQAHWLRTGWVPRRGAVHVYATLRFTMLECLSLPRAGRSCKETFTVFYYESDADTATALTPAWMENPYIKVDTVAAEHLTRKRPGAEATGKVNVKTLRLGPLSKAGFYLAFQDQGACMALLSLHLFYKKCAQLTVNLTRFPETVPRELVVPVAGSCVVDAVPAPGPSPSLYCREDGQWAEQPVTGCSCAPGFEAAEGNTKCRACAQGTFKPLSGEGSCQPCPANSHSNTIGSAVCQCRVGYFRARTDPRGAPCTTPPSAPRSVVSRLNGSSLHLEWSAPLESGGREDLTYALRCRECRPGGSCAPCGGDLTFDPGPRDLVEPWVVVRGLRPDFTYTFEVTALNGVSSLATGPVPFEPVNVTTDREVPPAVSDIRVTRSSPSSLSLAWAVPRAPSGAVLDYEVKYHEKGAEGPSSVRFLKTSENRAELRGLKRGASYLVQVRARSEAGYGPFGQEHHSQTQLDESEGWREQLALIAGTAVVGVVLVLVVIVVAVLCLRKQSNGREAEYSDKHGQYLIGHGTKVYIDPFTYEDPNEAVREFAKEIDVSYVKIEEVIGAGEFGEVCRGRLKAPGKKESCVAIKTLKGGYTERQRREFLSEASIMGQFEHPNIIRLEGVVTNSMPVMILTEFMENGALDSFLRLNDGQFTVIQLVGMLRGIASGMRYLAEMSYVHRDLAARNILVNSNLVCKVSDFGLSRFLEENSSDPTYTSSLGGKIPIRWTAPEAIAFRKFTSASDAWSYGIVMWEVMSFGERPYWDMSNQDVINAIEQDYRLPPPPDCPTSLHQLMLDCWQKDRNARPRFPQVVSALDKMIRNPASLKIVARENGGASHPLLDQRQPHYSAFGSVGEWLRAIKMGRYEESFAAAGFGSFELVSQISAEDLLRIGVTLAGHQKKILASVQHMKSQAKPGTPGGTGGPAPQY

`Cc1cccc2c(C(=O)O)c3c(nc12)CCCCC3` [4-methyl-7,8,9,10-tetrahydro-6H-cyclohepta[b]quinoline-11-carboxylic acid] and `Cc1cc(OC(=O)c2ccco2)c2c3c(c(=O)oc2c1)CCCC3` [(3-methyl-6-oxidanylidene-7,8,9,10-tetrahydrobenzo[c]chromen-1-yl) furan-2-carboxylate] cannot be ordered by IC50: greater than 79.4 µM for the first, greater than 79.4 µM for the second.

`Cc1ccc(-n2ncc3c(=O)n(CC(=O)N4CCCCCC4)cnc32)cc1` [5-(2-azepan-1-yl-2-oxoethyl)-1-(4-methylphenyl)-1,5-dihydro-4H-pyrazolo[3,4-d]pyrimidin-4-one] and `O=C1CN(C(=O)CN2CCCCC2)C(c2ccccc2)c2cc(Br)ccc2N1` (centres undefined) [7-bromanyl-5-phenyl-4-(2-piperidin-1-ylethanoyl)-3,5-dihydro-1H-1,4-benzodiazepin-2-one] cannot be ordered by IC50: greater than 79.4 µM for the first, greater than 79.4 µM for the second.

`Cc1ccc(-c2ccc(C(=O)O)[nH]2)cc1` [5-(4-methylphenyl)-1H-pyrrole-2-carboxylic acid] and `O=C(Nc1ccc2c(c1)OCO2)C1CC(c2ccc(F)cc2)=NO1` (centres undefined) [MLS000520439] cannot be ordered by IC50: greater than 79.4 µM for the first, greater than 79.4 µM for the second.

`Oc1c(CN2CCCCC2)cc(COCc2ccccc2)c2cccnc12` [5-(benzoxymethyl)-7-(piperidinomethyl)quinolin-8-ol] and `CCOC(=O)c1c(C)oc2c1c1c(c3ccccc32)OCN(Cc2cccnc2)C1` [MLS000043717] cannot be ordered by IC50: greater than 79.4 µM for the first, greater than 79.4 µM for the second.

`COC(=O)c1ccc(COc2ccc3c(C)c(C)c(=O)oc3c2C)o1` [5-[(2-keto-3,4,8-trimethyl-chromen-7-yl)oxymethyl]furan-2-carboxylic acid methyl ester] and `CCCc1nnc(SCc2ccc(C(=O)OC)o2)n1N` [5-[[(4-amino-5-propyl-1,2,4-triazol-3-yl)thio]methyl]-2-furancarboxylic acid methyl ester] cannot be ordered by IC50: greater than 79.4 µM for the first, greater than 79.4 µM for the second.

`Cc1onc(-c2ccccc2)c1C(=O)Nc1ccc(S(=O)(=O)NC2=NCCCCC2)cc1` [5-methyl-3-phenyl-N-[4-(3,4,5,6-tetrahydro-2H-azepin-7-ylsulfamoyl)phenyl]-1,2-oxazole-4-carboxamide] and `CCOc1ccc(NC(=O)C(C)Oc2ccccc2C(=O)Nc2ccc(C)c(Cl)c2)cc1` (centres undefined) [MLS000581136] cannot be ordered by IC50: greater than 79.4 µM for the first, greater than 79.4 µM for the second.

`O=C(c1cnc2ccc(S(=O)(=O)N3CCC4(CC3)OCCO4)cc2c1O)N1CCOCC1` [6-(1,4-dioxa-8-azaspiro[4.5]dec-8-ylsulfonyl)-3-(morpholin-4-ylcarbonyl)quinolin-4(1H)-one] and `O=C(Nc1ccccc1C(=O)N1CCOCC1)c1ccncc1` [MLS000109827] cannot be ordered by IC50: greater than 79.4 µM for the first, greater than 79.4 µM for the second.

`Cc1cc(NC(c2ccc(Cl)cc2)c2ccc3cccnc3c2O)no1` (centres undefined) [7-[(4-chlorophenyl)-[(5-methyl-1,2-oxazol-3-yl)amino]methyl]quinolin-8-ol] and `O=C(Nc1nc2n(n1)C(c1ccc(Cl)cc1)CC(c1ccc(Cl)cc1)N2)c1ccco1` (centres undefined) [SMR000045014] cannot be ordered by IC50: greater than 79.4 µM for the first, greater than 79.4 µM for the second.

`CCc1cccc2c(C#N)cn(CC(=O)N3CCOCC3)c12` [7-ethyl-1-[2-(4-morpholinyl)-2-oxoethyl]-1H-indole-3-carbonitrile] and `O=C(/C=C/c1cccc([N+](=O)[O-])c1)NCCN1CCOCC1` [(E)-N-(2-morpholin-4-ylethyl)-3-(3-nitrophenyl)prop-2-enamide] cannot be ordered by IC50: greater than 79.4 µM for the first, greater than 79.4 µM for the second.

`Cc1cc(N2CCN(c3ccccn3)CC2)n2cc(-c3ccccc3)nc2n1` [7-methyl-2-phenyl-5-(4-pyridin-2-ylpiperazin-1-yl)imidazo[1,2-a]pyrimidine] and `CN(C(=O)N1CCN(c2ccccn2)CC1)c1ccccc1` [MLS000534907] cannot be ordered by IC50: greater than 79.4 µM for the first, greater than 79.4 µM for the second.

`Cn1cc(Cl)c(C(=O)OCC(=O)Nc2ccccc2)n1` [(2-anilino-2-oxoethyl) 4-chloro-1-methylpyrazole-3-carboxylate] and `CCOC(=O)C1=C(c2ccccc2)N2C=CS(=O)(=O)NC2S1` (centres undefined) [MLS000048572] cannot be ordered by IC50: greater than 79.4 µM for the first, greater than 79.4 µM for the second.

`COc1ccccc1C1CC(c2c(O)nc3ccc(Cl)cc3c2-c2ccccc2)=NN1S(C)(=O)=O` (centres undefined) [(3Z)-6-chloranyl-3-[5-(2-methoxyphenyl)-1-methylsulfonyl-pyrazolidin-3-ylidene]-4-phenyl-quinolin-2-one] and `COc1cccc(OC)c1-c1nn2c(-c3cc(-c4ccccc4)n[nH]3)nnc2s1` [MLS000083027] cannot be ordered by IC50: greater than 79.4 µM for the first, greater than 79.4 µM for the second.

`CN1C(=O)S/C(=C/c2cccnc2)C1=O` [(5E)-3-methyl-5-(3-pyridinylmethylidene)thiazolidine-2,4-dione] and `CCn1c(CSc2nccn2C)nc2cc(C(=O)O)ccc21` [MLS000058666] cannot be ordered by IC50: greater than 79.4 µM for the first, greater than 79.4 µM for the second.

`O=C(/C=C/c1ccccc1Cl)NCc1ccccc1` [(E)-3-(2-chlorophenyl)-N-(phenylmethyl)-2-propenamide] and `O=C(O)/C(=C\c1ccco1)NC(=O)c1cccc2ccccc12` [(E)-3-(furan-2-yl)-2-(naphthalene-1-carbonylamino)prop-2-enoic acid] cannot be ordered by IC50: greater than 79.4 µM for the first, greater than 79.4 µM for the second.

`CCCCNC(=O)C1C2C=CC3(CN(Cc4ccccc4Cl)C(=O)C13)O2` (centres undefined) [MLS000044497] and `CCCn1c(NC(=O)C2COc3ccccc3O2)nc2ccccc21` (centres undefined) [MLS000053418] cannot be ordered by IC50: greater than 79.4 µM for the first, greater than 79.4 µM for the second.

`CN(c1ccccc1C(=O)Nc1ccccc1C(=O)NCc1ccco1)S(C)(=O)=O` [MLS000049900] and `CCOc1ccc(C(CCc2ccccc2)NC(=O)c2ccccc2F)cc1OCC` (centres undefined) [MLS000544814] cannot be ordered by IC50: greater than 79.4 µM for the first, greater than 79.4 µM for the second.

`O=C(NCCCN1CCCC1=O)NC12CC3CC(CC(C3)C1)C2` [MLS000050547] and `COC(=O)CSC1=NC2=C(C(=O)CCC2)C(c2ccc(C)cc2)C1C#N` (centres undefined) [methyl 2-[[3-cyano-4-(4-methylphenyl)-5-oxo-4,6,7,8-tetrahydro-1H-quinolin-2-yl]sulfanyl]acetate] cannot be ordered by IC50: greater than 79.4 µM for the first, greater than 79.4 µM for the second.

`O=C(NC(Cc1ccccc1)c1nc2ccccc2[nH]1)C1CC(=O)N(c2ccc3c(c2)OCCO3)C1` (centres undefined) [MLS000053466] and `O=C(CSc1nnnn1Cc1ccccc1)Nc1ccc2c(c1)OCO2` [MLS000067975] cannot be ordered by IC50: greater than 79.4 µM for the first, greater than 79.4 µM for the second.

Going from `CCOc1cc(N2CCOCC2)c(OCC)cc1NC(=O)COc1cccc2cccnc12` [MLS000060380] to `CCn1c(CSc2nnc(-c3cccnc3)n2-c2ccccc2C)nc2cc(C(=O)O)ccc21` [SMR000067019], the IC50 falls from greater than 79.4 µM to 11.1 µM.

`CCC(C)(C)NC(=O)C(c1ccco1)N(C(=O)c1csnn1)c1cccc(F)c1` (centres undefined) [MLS000074093] and `CC(=O)Nc1cccc(NC(=O)CSc2nnc(Cc3cccn3C)n2-c2ccc(C)cc2)c1` [MLS000092946] cannot be ordered by IC50: greater than 79.4 µM for the first, greater than 79.4 µM for the second.

`CC1(C)Cc2ccccc2-c2nnc(SCC(=O)Nc3nc4ccccc4s3)n21` [MLS000077330] and `O=C1Nc2ccccc2/C1=N/Nc1nc2ccccc2s1` [SMR000123161] cannot be ordered by IC50: greater than 79.4 µM for the first, greater than 79.4 µM for the second.

`O=C(CN(Cc1cccs1)C(=O)CSc1nnc(COc2ccccc2)o1)NC1CCCC1` [MLS000077370] and `COCc1nnc(NC(=O)CC(c2ccccc2)c2ccccc2)s1` [MLS000528014] cannot be ordered by IC50: greater than 79.4 µM for the first, greater than 79.4 µM for the second.

First: O=S1(=O)c2cccc3cccc(c23)N1Cc1nnc(-c2ccccc2Br)o1 [MLS000081705]
Second: O=C1c2ccccc2-c2onc3ccc(NCCCn4ccnc4)c1c23 [SMR000044769]
The IC50 of the first is higher: greater than 79.4 µM for the first, 0.8 µM for the second. The second is the more potent here.

`CC(=O)Nc1ccc(OCC=C(Cl)Cl)cc1` [MLS000107919] and `COc1ccc(C(C)NC(=O)c2ccccc2)cc1` (centres undefined) [MLS000525960] cannot be ordered by IC50: greater than 79.4 µM for the first, greater than 79.4 µM for the second.

Compared with `COc1ccc(Cn2nnnc2C(c2cc3ccc(OC)cc3nc2O)N2CCC(C)CC2)cc1` (centres undefined) [MLS000523343], `COCCCNc1c(O)nc2cccc3c2c1-c1ccccc1C3=O` [SMR000017250] is lower in IC50: greater than 79.4 µM for the first, 5.3 µM for the second.

`O=C(N/N=C/c1ccncc1)c1cc([N+](=O)[O-])cc([N+](=O)[O-])c1O` [MLS000541056] and `Oc1ccccc1C=Nn1c(-c2cccs2)n[nH]c1=S` [SMR000168763] cannot be ordered by IC50: greater than 79.4 µM for the first, greater than 79.4 µM for the second.

`O=[N+]([O-])/C=C/c1cn(Cc2ccc(F)cc2)c2ccccc12` [MLS000577100] and `Cc1[nH]c2ccccc2c1/C=C1\N=C(c2ccc(C(F)(F)F)cc2)OC1=O` [SMR000152363] cannot be ordered by IC50: greater than 79.4 µM for the first, greater than 79.4 µM for the second.
